Consider 18 compounds from publication PMC6691788, “Design and synthesis of phthalazine-based compounds as potent anticancer agents with potential antiangiogenic activity via VEGFR-2 inhibition” (Journal of Enzyme Inhibition and Medicinal Chemistry, 2019).

Structures are written as SMILES.

For one data set, the target named is T1, VEGFR-2 tyrosine kinase (Homo sapiens, UniProt P35968).
T1 construct: purchased BPS Bioscience 40301
The experiment in a line: In vitro VEGFR-2 tyrosine kinase assay (BPS Bioscience). The format is biochemical. Conditions: for inhibition at 10 µM: read-out: VEGFR-2 % inhibition, 10 μM concentration. The procedure:
The VEGFR tyrosine kinase assays were performed at BPS Bioscience (www.bpsbioscience.com). All the synthesised compounds representing the six series were evaluated for their ability to inhibit VEGFR-2 tyrosine kinase at single dose of 10 µM.
The VEGFR tyrosine kinase activity at single dose concentration of 10 μM was carried out by BPS Bioscience (www.bpsbioscience.com). VEGFR (BPS#40301) served as the enzyme source and Poly (Glu, Tyr) sodium salt, (4:1, Glu:Tyr) (Sigma#P7244) served as the standardized substrate & Kinase-Glo Plus Luminescence kinase assay kit (Promega#V3772). The IC50 determination was carried out where quality control testing is routinely performed on each of the targets to insure compliance to acceptable standards. ^33P-ATP was purchased from Perkin Elmer and ADP-Glo^TM was purchased from Promega. All other materials were of standard laboratory grade.
The VEGFR tyrosine kinase activity was performed using Kinase-Glo Plus luminescence kinase assay kit (Promega). It measures kinase activity by quantitating the amount of ATP remaining in solution following a kinase reaction. The luminescent signal from the assay is correlated with the amount of ATP present and is inversely correlated with the amount of kinase activity. The compounds were diluted to 100 μM in 10% DMSO and […] of the dilution was added to a […] reaction so that the final concentration of DMSO is 1% in all of reactions. All of the enzymatic reactions were conducted at 30 °C for 40 min. The 50 μl reaction mixture contains […], pH 7.4, […], 0.1 mg/ml BSA, 0.2 mg/ml Poly (Glu, Tyr) substrate, 10 μM ATP and VEGFR. After the enzymatic reaction, […] of Kinase-GloPlus Luminescence kinase assay solution (Promega) was added to each reaction and incubate the plate for 5 min at room temperature. Luminescence signal was measured using a BioTek Synergy 2 microplate reader. The protein kinase assays used to determine IC50 value were performed using ADP-GloTM assay kit from Promega which measures the generation of ADP by the protein kinase. Generation of ADP by the protein kinase reaction leads to an increase in luminescence signal in the presence of ADP-GloTM assay kit. The assay was started by incubating the reaction mixture in a 96-well plate at 30 °C for 30 min. After the 30 min incubation period, the assay was terminated by the addition of […] of ADP-GloTM Reagent (Promega). The 96 well plate was shaken and then incubated for 40 min at ambient temperature. […] of Kinase detection reagent was added, the 96-well reaction plate was then read using the ADP-Glo Luminescences Protocol on a GloMax plate reader (Promega: Catalog #E7031). Blank control was set up that included all the assay components except the addition of appropriate substrate (replace with equal volume of kinase assay buffer). The corrected activity for each protein kinase target was determined by removing the blank control value.
VEGFR activity assays were performed in duplicate at each concentration. The luminescence data were analyzed using the computer software, Graphpad Prism. The difference between luminescence intensities in the absence of VEGFR (Lut) and in the presence of VEGFR (Luc) was defined as 100% activity (Lut - Luc). […] IC50 determination for inhibitor against VEGFR was estimated by generating a graph of log inhibitor vs normalized response with variable using the Prism software.

The next data set deals with HCT-116. The experiment in a line: In vitro cytotoxic activity, SRB assay. It counts as cell-based. Conditions: Homo sapiens; HCT-116, 48h. The protocol:
(§1) In addition, compounds (12a, 12b, 12c, 16b, 16c and 17b) were evaluated against a third cell line (HepG-2) These first two cell lines were selected based on the sensitivity of the previously NCI-tested derivatives towards them amongst the 60 NCI panel. The growth inhibition is expressed as the median growth inhibitory concentration (IC50) which corresponds to the concentration required for 50% inhibition of cell viability and are provided in (Table S6 in supplementary material).
(§2) 5,000 cells in fresh medium were seeded in 96-well microlitre plates and left to attach for 24h. Cells were incubated with the tested compounds at concentration range from 0,1,2.5,5,10 µg/ml and incubation was continued for48h. After 48h treatment,the cells were fixed with 50µl cold 50% trichloroacetic acid (TCA )for 1h at 4 °C. Wells were then washed 5 times with water and stained for 30 min at room temperature with 50µl of 0.4%SRB dissolved in 1% acetic acid. The wells were then washed 4 times with 1% acetic acid. The plates were air dried and the dye was solubilized with 100µl/well of 10mM tris base (pH 10.5) for 5min on a shaker (Orbital Shaker OS 20,Boeco,Germany) at 1600 rpm. The optical density (O.D.)of each well was measured spectrophotometrically at 564 nm with an enzyme linked immunosorbent assay( ELIZA) micraplate reader (Tecan Sunrise,Austria).The mean back ground absorbance was subtracted automatically and mean values for each drug concentration was calculated.
(§3) The percentage of cell survival was calculated as follows:
(§4) Survival fraction =O.D.(treated cells)/O.D.(control cells)
(§5) The IC50 value (the concentration required to produce 50% inhibition of cell growth) was calculated using sigmodial dose response curve-fitting models (GraphPad,Prizm software incorporated). Each concentration was repeated 3 times.

For the next data set, the system named is MCF-7. The experiment in a line: In vitro cytotoxic activity, SRB assay. It counts as cell-based. Conditions: Homo sapiens, MCF7; MCF-7, 48h. The protocol: as §1, §2, §3, §4, §5
The next data set has as its system HepG-2. As to the kind of experiment: In vitro cytotoxic activity, SRB assay. The format is cell-based. Conditions: Homo sapiens, HepG2; HepG-2, 48h. The protocol: as §1, §2, §3, §4, §5
(In general: Sulforhodamine B stains cellular protein and so reports cell mass.)

T1 sequence (P35968 20-1356): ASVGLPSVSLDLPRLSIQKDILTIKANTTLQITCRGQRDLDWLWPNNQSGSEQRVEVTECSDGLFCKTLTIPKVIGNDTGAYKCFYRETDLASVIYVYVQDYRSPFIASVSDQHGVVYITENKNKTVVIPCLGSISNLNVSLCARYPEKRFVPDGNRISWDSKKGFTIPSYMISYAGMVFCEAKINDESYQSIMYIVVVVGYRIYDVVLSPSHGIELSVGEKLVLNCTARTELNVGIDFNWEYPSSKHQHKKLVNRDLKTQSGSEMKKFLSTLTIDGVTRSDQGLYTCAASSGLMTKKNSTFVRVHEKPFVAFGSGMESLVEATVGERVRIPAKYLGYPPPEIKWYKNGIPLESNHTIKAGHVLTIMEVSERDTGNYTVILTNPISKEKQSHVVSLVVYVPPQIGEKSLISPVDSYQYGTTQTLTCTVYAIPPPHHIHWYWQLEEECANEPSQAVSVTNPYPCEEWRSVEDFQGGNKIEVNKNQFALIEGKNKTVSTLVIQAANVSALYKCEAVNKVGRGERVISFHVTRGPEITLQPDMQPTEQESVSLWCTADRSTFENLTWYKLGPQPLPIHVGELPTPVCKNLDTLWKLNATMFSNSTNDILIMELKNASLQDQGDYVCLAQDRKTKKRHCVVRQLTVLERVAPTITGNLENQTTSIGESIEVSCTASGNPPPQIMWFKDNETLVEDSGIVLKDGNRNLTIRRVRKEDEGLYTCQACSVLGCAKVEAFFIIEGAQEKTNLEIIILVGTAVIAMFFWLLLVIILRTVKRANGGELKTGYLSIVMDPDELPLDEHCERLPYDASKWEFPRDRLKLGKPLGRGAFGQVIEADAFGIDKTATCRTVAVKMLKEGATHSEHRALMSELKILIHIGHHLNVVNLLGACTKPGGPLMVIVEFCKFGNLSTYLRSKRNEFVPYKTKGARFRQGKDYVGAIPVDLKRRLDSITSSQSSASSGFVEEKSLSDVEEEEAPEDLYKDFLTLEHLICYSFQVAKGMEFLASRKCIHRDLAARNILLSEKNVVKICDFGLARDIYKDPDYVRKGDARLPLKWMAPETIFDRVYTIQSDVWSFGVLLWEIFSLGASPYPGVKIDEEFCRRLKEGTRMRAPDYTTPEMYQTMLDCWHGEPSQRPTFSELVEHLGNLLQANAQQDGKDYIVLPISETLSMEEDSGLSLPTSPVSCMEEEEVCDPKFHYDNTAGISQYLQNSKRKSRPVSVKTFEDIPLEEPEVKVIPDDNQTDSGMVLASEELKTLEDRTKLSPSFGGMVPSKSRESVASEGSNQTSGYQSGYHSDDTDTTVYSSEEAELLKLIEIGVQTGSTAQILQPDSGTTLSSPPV

A word on the inhibition: it is the percentage by which the read-out fell short of the control. What is called IC50 is the midpoint of a concentration-inhibition curve. What is called melting point is the temperature, or range, at which the solid turns liquid. Turning to `O=C(Nc1ccc(Nc2nncc3ccccc23)cc1)c1ccccc1` [Compound 5a, N-(4-(Phthalazin-1-ylamino)phenyl)benzamide], the melting point was 142 to 144 °C. The inhibition at 10 µM at VEGFR-2 tyrosine kinase is 4%. The same compound displayed an IC50 with HCT-116 of 977 µM. Moreover, the IC50 in the data set on MCF-7 is greater than 1000 µM.
For `Cc1nnc(Nc2ccc(NC(=O)c3ccccc3)cc2)c2ccccc12` [Compound 5c, N-(4–(4-Methylphthalazin-1-ylamino)phenyl)benzamide] the same measures were 283 to 285 °C, 12%, 15 µM and 22.9 µM.
For `O=C(Nc1ccccc1)Nc1ccc(Nc2nncc3ccccc23)cc1` [Compound 6a, 1-Phenyl-3–(4-(phthalazin-1-ylamino)phenyl)urea] the same measures were 145 to 147 °C, 13%, 91.2 µM and 67.6 µM.
As to `O=C(Nc1ccc(Nc2nncc3ccccc23)cc1)Nc1ccc(Cl)c(C(F)(F)F)c1` [Compound 6c, 1–(4-Chloro-3-(trifluoromethyl)phenyl)-3–(4-(phthalazin-1-ylamino)phenyl)urea], the melting point fell in the range of 288 to 291 °C. Further, the IC50 at VEGFR-2 tyrosine kinase (10 μM ATP/0.2 mg/ml poly-Glu-Tyr) turned out to be 13.4 µM. Moreover, the inhibition at 10 µM at VEGFR-2 tyrosine kinase was 70%. Also, half-maximal inhibition in the data set on HCT-116 (IC50) was put at 6 µM. Also, inhibition in the data set on MCF-7 was half-maximal at 6.2 µM (IC50).
On to `Cc1nnc(Nc2ccc(NC(=O)Nc3ccccc3)cc2)c2ccccc12` [Compound 6d, 1–(4-(4-Metyhlphthalazin-1-ylamino)phenyl)3-phenylurea], for which the melting point was in the range of 284 to 286 °C. Besides, the inhibition at 10 µM at VEGFR-2 tyrosine kinase came out at 15%. Also, half-maximal inhibition in the data set with HCT-116 (IC50) required 57.5 µM. In the data set with MCF-7, this compound yielded an IC50 of 67.6 µM.
`Cc1nnc(Nc2ccc(NC(=O)Nc3ccc(Cl)c(C(F)(F)F)c3)cc2)c2ccccc12` [Compound 6f, 1–(4-Chloro-3-(trifluoromethyl)phenyl)-3–(4-(4-methylphthalazin-1-ylamino)phenyl)-urea] showed a melting point of 258 to 260 °C. For the same compound, on VEGFR-2 tyrosine kinase, the inhibition at 10 µM was 32%. Moreover, half-maximal inhibition with HCT-116 (IC50) was put at 3.1 µM. The compound further registered an IC50 with MCF-7 of 3.2 µM.
`O=C(Nc1ccccc1)Nc1ccc(Oc2nncc3ccccc23)cc1` [Compound 7a, 1-Phenyl-3–(4-(phthalazin-1-yloxy)phenyl)urea] gave a melting point of 180 to 182 °C. Besides, the inhibition at 10 µM at VEGFR-2 tyrosine kinase amounted to 5%.
On to `O=C(Nc1ccc(Oc2nncc3ccccc23)cc1)Nc1ccc(Cl)c(C(F)(F)F)c1` [Compound 7c, 1–(4-Chloro-3-(trifluoromethyl)phenyl)-3–(4-(phthalazin-1-yloxy)phenyl)urea], for which the melting point was 158 to 160 °C. The inhibition at 10 µM on VEGFR-2 tyrosine kinase stood at 47%. This compound also displayed an IC50 with HCT-116 of 2.6 µM. Besides, the IC50 in the data set with MCF-7 was found to be 2.5 µM.
For `Cc1nnc(Oc2ccc(NC(=O)Nc3ccccc3)cc2)c2ccccc12` [Compound 7d] the same measures were 174 to 176 °C, 10%, 7.2 µM and 7.8 µM.
On the same counts, the results for `Cc1nnc(Oc2ccc(NC(=O)Nc3ccc(Cl)c(C(F)(F)F)c3)cc2)c2ccccc12` [Compound 7f, 1–(4-Chloro-3-(trifluoromethyl)phenyl)-3–(4-(4-metyhlphthalazin-1-yloxy)phenyl)urea] are 150 to 152 °C, 21%, 49 µM and 31 µM.
On the same counts, the results for `c1ccc(N2CCN(c3nncc4ccccc34)CC2)cc1` [Compound 8b, 1–(4-Phenylpiperazin-1-yl)phthalazine] are 242 to 244 °C, 8%, 550 µM and 363 µM.
`Fc1ccccc1N1CCN(c2nncc3ccccc23)CC1` [Compound 8c, 1–(4-(2-Fluorophenyl)piperazin-1-yl)phthalazine]: the melting point was in the range of 88 to 90 °C. Further, the inhibition at 10 µM at VEGFR-2 tyrosine kinase is 9%. This compound also gave an IC50 with HCT-116 of 42.7 µM. In the data set on MCF-7, this compound came in with an IC50 of 32.4 µM.
For `O=C(c1ccco1)N1CCN(c2nncc3ccccc23)CC1` [Compound 8e, Furan-2-yl-(4-(phthalazin-1-yl)piperazin-1-yl)methanone] the same measures were 90 to 92 °C, 9%, 513 µM and 190 µM.
For `Cc1nnc(N2CCN(C(=O)c3ccco3)CC2)c2ccccc12` [Compound 8j, Furan-2-yl-(4–(4-methylphthalazin-1-yl)piperazin-1-yl)methanone] the same measures were 90 to 92 °C, 10%, 479 µM and 479 µM.
`O=C(Nc1ccccc1)Nc1ccc(Nc2nnc(Cl)c3ccccc23)cc1` [Compound 12a, 1–(4-(4Chlorophthalazin-1-ylamino)phenyl)-3-phenylurea] showed a melting point of 225 to 227 °C. Moreover, the inhibition at 10 µM on VEGFR-2 tyrosine kinase is 26%. In the data set on HCT-116, the IC50 is 479 µM. In addition, in the data set on HepG-2, the IC50 was greater than 1000 µM. In addition, the IC50 in the data set on MCF-7 amounted to 81.3 µM.
For `Clc1ccc(Nc2nnc(CNc3cccc(Cl)c3)c3ccccc23)cc1` [Compound 16b, N-(4-Chlorophenyl)-4-((3-chlorophenylamino)methyl)phthalazin-1-amine] the same measures were 164 to 166 °C, 21%, 28.8 µM, 77.6 µM and 91 µM.
For `Cc1cccc(NCc2nnc(Nc3ccc(Cl)cc3)c3ccccc23)c1` [Compound 16c, N-(4-Chlorophenyl)-4-((m-tolylamino)methyl)phthalazin-1-amine] the same measures were 130 to 132 °C, 19%, 257 µM, greater than 1000 µM and greater than 1000 µM.
Consider `COc1cccc2c1C(=O)c1c(O)c3c(c(O)c1C2=O)C[C@@](O)(C(=O)CO)C[C@@H]3O[C@H]1C[C@H](N)[C@H](O)[C@H](C)O1` [Dox, doxorubicin, reference compound], for which the IC50 in the data set with HCT-116 stood at 0.62 µM; in the data set on HepG-2, 0.5 µM; with MCF-7, 0.9 µM.
